pEC50: −log10 of the molar value.
Legend:
EMCV = assay: microbe, parasite or virus in culture; format: cell-based, encephalomyocarditis virus (EMCV); conditions: Cardiovirus A, L929
H1N1 = H1N1 NP protein in A549 cells (confocal microscopy, immunoblotting); format: cell-based, influenza virus A (H1N1)
Procedure: Cells were lysed in lysis buffer and the protein concentrations were determined using the BCA Protein Assay Kit. Subsequently, the protein samples were separated by SDS-PAGE electrophoresis and transferred to nitrocellulose (NC) membranes, and blocked in 5% skim milk for 1 h at room temperature. Following an overnight incubation at 4°C with specific primary antibodies, the membranes were exposed to the appropriate HPR-conjugated antibodies and visualized using enhanced chemiluminescence.
Cells were fixed with 4% PFA for 20 min, permeabilized with 0.2% Triton X-100 for 20 min, and blocked in 5% BAS for 1 h. After incubating with primary antibodies at 4℃ overnight, fluorescent secondary antibodies (Alexa-488, Alexa-594, Alexa-647) were added at RT for 1 h. Confocal microscopy analyses were carried out using Olympus FV3000 confocal microscope, and Leica TCS SP8 confocal microscope. […] Cells were then analyzed for Filipin staining signals by microscopy in the DAPI channel. […] Cells were then analyzed for signals by microscopy in the AF647 channel.
Figure S2. […] P values were calculated using one-way ANOVA.

[1] = cited from earlier work
NPC1 = target: T1, NPC1 (Homo sapiens, UniProt O15118); assay: Drug affinity responsive target stability (DARTS); conditions: 150 µM, pronase digestion
T1 sequence (O15118 23-1278): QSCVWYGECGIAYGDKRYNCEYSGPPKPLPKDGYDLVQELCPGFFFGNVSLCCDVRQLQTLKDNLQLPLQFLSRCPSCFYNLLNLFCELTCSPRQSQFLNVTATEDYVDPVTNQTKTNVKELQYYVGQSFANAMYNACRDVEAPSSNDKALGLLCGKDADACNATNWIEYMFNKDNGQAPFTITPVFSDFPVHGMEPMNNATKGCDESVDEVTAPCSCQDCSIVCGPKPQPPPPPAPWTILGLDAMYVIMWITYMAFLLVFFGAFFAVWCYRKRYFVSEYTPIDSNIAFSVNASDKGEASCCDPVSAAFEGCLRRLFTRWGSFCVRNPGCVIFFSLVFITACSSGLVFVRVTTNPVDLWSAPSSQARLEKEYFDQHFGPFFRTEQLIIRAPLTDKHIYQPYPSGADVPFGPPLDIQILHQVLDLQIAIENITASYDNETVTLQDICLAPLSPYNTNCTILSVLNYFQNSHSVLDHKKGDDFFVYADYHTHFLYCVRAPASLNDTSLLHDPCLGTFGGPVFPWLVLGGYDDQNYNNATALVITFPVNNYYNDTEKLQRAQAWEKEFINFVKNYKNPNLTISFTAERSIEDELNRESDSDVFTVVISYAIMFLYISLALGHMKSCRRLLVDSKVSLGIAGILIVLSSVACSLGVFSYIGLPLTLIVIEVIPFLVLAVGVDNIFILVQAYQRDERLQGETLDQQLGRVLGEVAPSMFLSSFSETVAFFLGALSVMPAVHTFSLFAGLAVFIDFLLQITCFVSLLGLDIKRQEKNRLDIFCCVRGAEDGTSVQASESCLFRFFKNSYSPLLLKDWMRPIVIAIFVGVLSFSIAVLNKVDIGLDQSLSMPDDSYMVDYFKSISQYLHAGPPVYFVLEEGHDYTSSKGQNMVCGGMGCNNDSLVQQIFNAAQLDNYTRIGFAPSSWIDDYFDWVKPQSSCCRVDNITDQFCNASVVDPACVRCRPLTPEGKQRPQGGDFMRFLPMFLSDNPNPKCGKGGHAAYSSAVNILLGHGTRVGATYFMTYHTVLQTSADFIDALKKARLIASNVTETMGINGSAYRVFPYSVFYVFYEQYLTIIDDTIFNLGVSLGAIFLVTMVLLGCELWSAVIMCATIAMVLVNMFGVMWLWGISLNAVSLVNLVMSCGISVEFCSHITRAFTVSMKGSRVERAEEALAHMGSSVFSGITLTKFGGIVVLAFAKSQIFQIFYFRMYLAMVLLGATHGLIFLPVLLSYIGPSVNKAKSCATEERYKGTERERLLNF

SMILES: COc1ccc2cc1Oc1ccc(cc1)C[C@H]1c3cc(c(OC)cc3CCN1C)Oc1c(OC)c(OC)cc3c1[C@H](C2)N(C)CC3 [Tet, tetrandrine]
- pEC50 (EMCV): 6.00
- H1N1 NP protein expression (H1N1): effectively reduced
- cytopathic effects (H1N1): without causing cytopathic effects
- systemic clearance [1]: low
- volume of distribution [1]: high
- NPC1 stability (DARTS) (NPC1): enhanced NPC1 stability against degradation

From article PMC12416277, “Phytochemical alkaloids orchestrate immunometabolism against viral infections” (National Science Review, 2025)
